Data taken from ChEMBL document CHEMBL1201862, “PubChem BioAssay data set” (2004).
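A five-concentration, 48-hour dose response in 96-well plates underlies each endpoint, interpolated linearly between surrounding concentrations. Here, GI50 denotes the concentration required for 50% inhibition of growth.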 Active and inactive are the calls of the source. No stated cut-off is given here; in the data, active = GI50 up to about 1.1 µM and inactive = higher.

Experiments:
Assay in all cases: NCI anticancer screen, dose series, 48 h
[1] = system: HOP-62
[2] = system: SF-268
[3] = system: HOP-92
[4] = system: K562
[5] = system: SR
[6] = system: UACC-62
[7] = system: MDA-N
[8] = system: SNB-19
[9] = system: SNB-75
[10] = system: Malme-3M
[11] = system: OVCAR-5
[12] = system: A498
[13] = system: NCI-H23
[14] = system: PC-3
[15] = system: HCT-116
[16] = system: CCRF-CEM
[17] = system: ACHN
[18] = system: DU-145

Row | SMILES | GI50 [1] | GI50 [2] | GI50 [3] | GI50 [4] | GI50 [5] | GI50 [6] | GI50 [7] | GI50 [8] | GI50 [9] | GI50 [10] | GI50 [11] | GI50 [12] | GI50 [13] | GI50 [14] | GI50 [15] | GI50 [16] | GI50 [17] | GI50 [18]
1 | O=c1c2cc(O)c(O)cc2oc2cc(O)c(C3OC(CO)C(O)C(O)C3O)c(O)c12 (stereo unspecified) | > 100 µM (inactive) | > 100 µM (inactive) | > 100 µM (inactive) | > 100 µM (inactive) | > 100 µM (inactive) | > 100 µM (inactive) | > 100 µM (inactive) | > 100 µM (inactive) | > 100 µM (inactive) | > 100 µM (inactive) | > 100 µM (inactive) | > 100 µM (inactive) | > 100 µM (inactive) | > 100 µM (inactive) | > 100 µM (inactive) | > 100 µM (inactive) | > 100 µM (inactive) | –
2 | O=C(O)c1cc2ccccc2c(/N=N/c2ccc(S(=O)(=O)O)cc2)c1O | > 100 µM (inactive) | > 100 µM (inactive) | > 100 µM (inactive) | > 100 µM (inactive) | > 100 µM (inactive) | > 100 µM (inactive) | > 100 µM (inactive) | 0.0264 µM (active) | > 100 µM (inactive) | > 100 µM (inactive) | > 100 µM (inactive) | – | – | > 100 µM (inactive) | > 100 µM (inactive) | > 100 µM (inactive) | > 100 µM (inactive) | > 100 µM (inactive)
3 | CCCCOc1c(C(=O)O)cc(Br)cc1C(=O)O | > 100 µM (inactive) | > 100 µM (inactive) | > 100 µM (inactive) | > 100 µM (inactive) | – | – | > 100 µM (inactive) | > 100 µM (inactive) | > 100 µM (inactive) | > 100 µM (inactive) | > 100 µM (inactive) | > 100 µM (inactive) | > 100 µM (inactive) | > 100 µM (inactive) | 91.6 µM (inactive) | – | > 100 µM (inactive) | –
4 | CSC1NNC2(C(=O)N1)c1ccccc1-c1ccccc12 (stereo unspecified) | > 10 µM (inactive) | > 10 µM (inactive) | > 10 µM (inactive) | > 10 µM (inactive) | > 10 µM (inactive) | > 10 µM (inactive) | > 10 µM (inactive) | > 10 µM (inactive) | > 10 µM (inactive) | > 10 µM (inactive) | – | – | > 10 µM (inactive) | > 10 µM (inactive) | > 10 µM (inactive) | > 10 µM (inactive) | > 10 µM (inactive) | > 10 µM (inactive)
5 | O=[N+]([O-])C(=C(Nc1ccccc1)Nc1ccccc1)C(Cl)=C(Cl)Cl | 21.9 µM (inactive) | 18.7 µM (inactive) | 15.8 µM (inactive) | 10.3 µM (inactive) | – | 15.6 µM (inactive) | 12.6 µM (inactive) | 17.9 µM (inactive) | 19.1 µM (inactive) | 19.6 µM (inactive) | 23.1 µM (inactive) | 9.93 µM (inactive) | 13.6 µM (inactive) | 15.2 µM (inactive) | 12.5 µM (inactive) | 8.04 µM (inactive) | 15.9 µM (inactive) | 17.5 µM (inactive)
6 | O=c1oc2ccc3ccccc3c2cc1-c1cn2c(n1)sc1ccccc12 | > 100 µM (inactive) | > 100 µM (inactive) | 55.2 µM (inactive) | 2.69 µM (inactive) | – | 92.7 µM (inactive) | > 100 µM (inactive) | > 100 µM (inactive) | > 100 µM (inactive) | > 100 µM (inactive) | > 100 µM (inactive) | > 100 µM (inactive) | > 100 µM (inactive) | > 100 µM (inactive) | > 100 µM (inactive) | > 100 µM (inactive) | > 100 µM (inactive) | > 100 µM (inactive)
7 | COc1cccc(CN(C(=O)/C=C\Sc2ccccc2)C(C)(C)C)c1 | > 100 µM (inactive) | – | 2.61 µM (inactive) | – | – | > 100 µM (inactive) | 74 µM (inactive) | > 100 µM (inactive) | – | – | > 100 µM (inactive) | > 100 µM (inactive) | > 100 µM (inactive) | 33 µM (inactive) | 33 µM (inactive) | 0.435 µM (active) | > 100 µM (inactive) | > 100 µM (inactive)
8 | CN(C)c1ccc(/N=N/c2ccncc2)cc1 | > 100 µM (inactive) | 85.7 µM (inactive) | 17.6 µM (inactive) | 43.5 µM (inactive) | – | 87.5 µM (inactive) | 46 µM (inactive) | > 100 µM (inactive) | – | > 100 µM (inactive) | > 100 µM (inactive) | > 100 µM (inactive) | > 100 µM (inactive) | > 100 µM (inactive) | > 100 µM (inactive) | > 100 µM (inactive) | > 100 µM (inactive) | > 100 µM (inactive)
